Reference: patent US20060148732A1, “Inhibition of NF-kappaB by triterpene compositions” (priority 2000, published 2006)

How the values were obtained:
Assay type in all cases: cell-based, human
[1] = test system: Jurkat (T-cell leukemia) cells; test: Cytotoxicity screen (MTT/crystal violet, 72 h); details: for inhibitory concentration 50 (IC50), growth inhibition: MTT, 72 hours
Description: Each of the extracts was then screened against a panel of human tumor and non-tumor cells including human ovarian cancer cell lines, T-leukemic cells, human epidermoid cells, human breast cancer cells, human prostate cancer cells, human foreskin fibroblast cells, human endothelial cells, and human renal cancer cells. The cells were first plated in 96-well plates for 18-24 hours at 37° C. The cells were then exposed to varying concentrations of the plant extracts, and incubated for 72 hours at 37° C., and stained with either MTT (3-(4,5-dimethylethiazol-2-yl)-2,5-diphenyl tetrazolium bromide; Sigma Chemical Co.) for 4 hours or crystal violet (Sigma Chemical Co.) for 20 minutes at room temperature. The MTT plates received lysis buffer (20% sodium dodecyl sulfate in 50% DMF) and were incubated for an additional 6 hours before taking an OD reading at 570 nm. The crystal violet plates were washed, dye was extracted for 3-4 hours with Sorenson's buffer (0.1 M sodium citrate (pH 4.2), 50% v/v ethanol), and the plates were read at 570-600 nm (Mujoo et al., 1996). Cytotoxicity of the screened extracts was indicated by comparing the OD readings between the treated media alone and the cells treated with the plant extract. Percent cytotoxicity was calculated by 100-% of control, where % of control =[((OD of cells treated with plant extract (treated sample))/(OD of cells exposed to media alone (untreated sample)))×100].
Assay for Growth Inhibition. The growth inhibitory activity of F094 and avicins was measured by the MTT [3-(4, 5-Dimethylthiazol-2-yl)-2, 5-diphenyl tetrazolium bromide)] reduction assay (Deng et al., 1999). Cells (1×10^4/well) were cultured with varying concentrations of F094, avicin D, or avicin G in 96 well plates for 72 hours at 37° C. The cells were stained with MTT for 2 hours and then incubated with lysis buffer (20% sodium dodecyl sulfate in 50% N,N-dimethylformamide) for another 6 hours. Optical density at 570 nm was used as a measure of cell viability.

AKT in Jurkat cells = test: Western blot of phosphorylated and total AKT; details: 2 μg/ml (F035 printed '2 ml'), 15 hr
Description: The effect of F035 on phosphorylation of AKT was analyzed as follows. Jurkat cells (5×10^6) were serum starved and exposed to F035 for 15 h and 2 h with wortmannin at 37° C. The cells were either induced with cd3XL (cd3 crosslink) or left uninduced for 10 min at 37° C. and lysed in AKT lysis buffer and the proteins were resolved on 8% SDS-PAGE gels and analyzed by western-ECL using phospho-specific AKT (Ser 473; New England Biolabs) and total AKT antibody. An assay of the effect of F035 on p70S6 kinase can be carried out similarly, but using a Phosphoplus p70S6 kinase antibody kit (New England Biolabs) for analysis of p70S6 kinase (Ser 411, thr421/ser424) phosphorylation. […] There was, however, no change in the expression of total AKT.
The expression of total and phosphorylated forms of AKT was determined by western blot analysis. Jurkat cells cultured in medium containing 0.5% FBS were treated with F035 and pure extracts D1 and G1 (2.0 μg/ml) for 15 h at 37° C. The cells were lysed in AKT Iysis buffer (20 mM Tris-HCl, 150 mM NaCI, 1 mM EDTA, 1 mM EGTA, 1% Triton X-100, 2.5 mM sodium pyrophosphate, 1 mM 8-glycerol phosphate, 1 mM Na3VO4, […], 1 mM PMSF pH 7.5). Cellular protein (40 μg) was resolved on 8% SDS-polyacrylamide gel and electrotransferred onto nitrocellulose membrane. Membranes were probed first with phosphospecific AKT (Ser 473) or AKT antibody followed by goat anti rabbit antibody conjugated to horseradish peroxidase. Proteins were detected by chemiluminescence (ECL, Amersham, Arlington Heights, Ill.).

[2] = test system: cytochrome c in Jurkat cells; test: Cytochrome c release from mitochondria (western blot); details: 2 μg/ml
Description: Release of cytochrome c from mitochondria in response to treatment with F035 was detected by western blotting. Jurkat cells (10 ×10^6) were treated with 2 μg/ml of F035 for 4 and 6 h at 37° C. Cell pellets were washed in sucrose buffer (0.25M sucrose, 30 mM Tris, pH 7.7, 1 mM EDTA). To the cell pellets added 20 μl of sucrose buffer containing 1 μM PMSF, 1 μg/ml leupeptin, 1 μg/ml pepstatin and 1 μg/ml aprotinin. Cells were disrupted by douncing 120 times in a 0.3 ml Kontes douncer with a B pestle (Kontes Glass company). Cellular protein (60 μg) was resolved on a 15% SDS-polyacrylamide gel and electrotransferred onto a nitrocellulose membrane. The membrane was probed first with monoclonal anti-cytochrome c antibody (PharMingen) and then with anti-mouse antibody conjugated to horse radish peroxidase (HRPO). Protein bands were detected by chemiluminescence (ECL, Amersham).
Detection of Cytochrome c Release from Mitochondria. Release of cytochrome c from mitochondria was detected by Western blot analysis. Jurkat cells (1×10^7) were treated with F094, avicin D, or avicin G (2 μg/ml) at 37° C. After washing the cell pellets in sucrose buffer (0.25 M sucrose, 30 mM Tris, pH 7.7, 1 mM EDTA), they were resuspended in 20 μl of sucrose buffer containing 1 μM PMSF, 1 μg/ml leupeptin, 1 μg/ml pepstatin, and 1 μg/ml aprotinin. Cells were disrupted by douncing 120 times in a 0.3 ml Kontes douncer (Kontes Glass Company, Vineland, N.J.) with a B pestle. Cellular protein (50 μg) was resolved on a 15% SDS-polyacrylamide gel and electrotransferred onto a nitrocellulose membrane. The membrane was probed with monoclonal anti-cytochrome c antibody (Pharmingen, San Diego, Calif.) followed with anti-mouse antibody conjugated to horseradish peroxidase (HRPO). Protein bands were detected by chemiluminescence (ECL, Amersham).

| SMILES | inhibitory concentration 50 (IC50), growth inhibition [1] [µg/mL] | Cytotoxicity IC50 ([1]; pH 6.5) [µg/mL] | Cytotoxicity IC50 ([1]; pH 7.5) [µg/mL] | AKT phosphorylation (AKT in Jurkat cells) | total AKT protein (AKT in Jurkat cells) | increase in cytosolic cytochrome c ([2]; 30 minutes post-treatment) [fold] | increase in cytosolic cytochrome c ([2]; 4 hours post-treatment) [fold] |
| --- | --- | --- | --- | --- | --- | --- | --- |
| C=C[C@](C)(O)CC/C=C(\CO)C(=O)O[C@H]1[C@H](O)[C@@H](O)[C@H](O[C@@](C)(C=C)CC/C=C(\CO)C(=O)O[C@H]2C[C@]3(C(=O)O[C@@H]4O[C@H](CO)[C@@H](O)[C@H](O)[C@H]4O[C@@H]4O[C@@H](C)[C@H](O[C@@H]5O[C@@H](CO)[C@H](O)[C@H]5O)[C@@H](O[C@@H]5O[C@H](CO)[C@@H](O)[C@H](O)[C@H]5O)[C@H]4O)[C@H](O)C[C@]4(C)C(=CC[C@@H]5[C@@]6(C)CC[C@H](O[C@@H]7O[C@H](CO[C@@H]8O[C@H](C)[C@H](O)[C@H](O)[C@H]8O[C@@H]8OC[C@@H](O)[C@H](O)[C@H]8O)[C@@H](O)[C@H](O)[C@H]7NC(C)=O)C(C)(C)[C@@H]6CC[C@]54C)[C@@H]3CC2(C)C)O[C@@H]1C [Fraction D1] | 0.320 to 0.326 | 1.01 | 0.98 | inhibited AKT phosphorylation | inhibited | 1.5 | 3 |
| C=C[C@](C)(O)CC/C=C(\C)C(=O)O[C@H]1[C@H](O)[C@@H](O)[C@H](O[C@@](C)(C=C)CC/C=C(\CO)C(=O)O[C@H]2C[C@]3(C(=O)O[C@@H]4O[C@H](CO)[C@@H](O)[C@H](O)[C@H]4O[C@@H]4O[C@@H](C)[C@H](O[C@@H]5O[C@@H](CO)[C@H](O)[C@H]5O)[C@@H](O[C@@H]5O[C@H](CO)[C@@H](O)[C@H](O)[C@H]5O)[C@H]4O)[C@H](O)C[C@]4(C)C(=CC[C@@H]5[C@@]6(C)CC[C@H](O[C@@H]7O[C@H](CO[C@@H]8O[C@H](C)[C@H](O)[C@H](O)[C@H]8O[C@@H]8OC[C@@H](O)[C@H](O)[C@H]8O)[C@@H](O)[C@H](O)[C@H]7NC(C)=O)C(C)(C)[C@@H]6CC[C@]54C)[C@@H]3CC2(C)C)O[C@@H]1C [Fraction G1] | 0.160 to 0.181 | 0.3 | 0.49 | inhibited AKT phosphorylation | inhibited | 3.5 | 8.4 |
